Data on nine molecules can be found in patent publication US10618916B2, “Heterocyclic compounds as immunomodulators” (Incyte Corporation, priority 2018, dated 2020).

Like-named read-outs stand apart in the source and are kept apart here.

The IC50 is the concentration that inhibits the measured activity by half. The term EC50 denotes the midpoint of the concentration-response curve.

For experiment [1], the system named is U2OS/PD-L1 cells and Jurkat-PD-1-SHP cells. The experiment is described as follows: Src homology region 2 domain-containing phosphatase (SHP) assay. The experiment is classed as cell-based. As to the method: Example B. Src Homology Region 2 Domain-Containing Phosphatase (SHP) Assay
U2OS/PD-L1 cells (DiscoveRx Corporation) were maintained in McCoy's 5A medium with addition of 10% FBS, 0.25 μg/ml Puromycin. After removing the culture media, the cell medium was replaced with assay medium (RPMI1640 medium with 1% FBS). The U2OS/PD-L1 cells were then added in 384-well black clear bottom assay plate (CELLCOAT® Tissue Culture Plates, Greiner Bio-One) at 5000 cells per well in 20 μL assay medium. Test compounds were prepared by serial dilution in DMSO and 125 nL compound were first transferred to the 384 REMP plate well (Thermofisher) by ECHO liquid handler (Labcyte) followed with addition of 27.5 μL assay medium. 5 μL/well compounds in the assay medium were transferred to the cell plate with 0.05% DMSO in the final assay at […]. Jurkat-PD-1-SHP cells (DiscoveRx Corporation) were cultured in RPMI1640 medium supplemented with 10% FBS, 250 μg/ml Hygromycin B, 500 μg/ml G418. After the replacement of culture media with assay medium, 5,000 Jurkat-PD-1-SHP cells in 20 μL were dispensed into each well. The assay plate was incubated at 37° C., 5% CO2 for 2 hours before 2.5 μL PathHunter reagent 1 (DiscoveRx Corporation) were added to each well. The assay plate was shaken for 1 min at 350 rpm in the dark followed with addition of 10 μL PathHunter reagent 2 (DiscoveRx Corporation). Chemiluminescent signal was recorded with TopCount reader (Perkin Elmer) after incubation at room temperature for 1 hour. Wells with DMSO were served as the positive controls and wells containing no cells were used as negative controls. IC50 determination was performed by fitting the curve of percentage of control activity versus the log of the compound concentration using the GraphPad Prism 6.0 software.

Experiment [2] has as its system PD-L1 aAPC/CHO-K1 cells and Jurkat-PD-1-NFAT effector cells. The experiment is described as follows: Nuclear factor of activated T-cells (NFAT) assay. It is filed as cell-based. The procedure:
Example C. Nuclear Factor of Activated T-Cells (NFAT) Assay
PD-L1 aAPC/CHO-K1 cells (Promega) were maintained in F-12 medium with addition of 10% FBS, 200 μg/ml Hygromycin B, 250 μg/ml Geneticin (G418). Jurkat-PD-1-NFAT effector cells (Promega) were cultured in RPMI 1640 medium supplemented with 10% FBS, 100 μg/ml Hygromycin B, 500 μg/ml G418. The culture media of PD-L1 aAPC/CHO-K1 cells were first replaced with assay medium (RPMI1640 medium with 1% FBS). The PD-L1 aAPC/CHO-K1 cells were then added in a white 384-well white clear bottom assay plate (CELLCOAT® Tissue Culture Plates, Greiner Bio-One) at 8000 per well in 10 μL assay medium. Test compounds were prepared by serial dilution in DMSO and 0.8 μL test compounds in DMSO were first transferred to the 384 REMP plate well (Thermofisher) by PlateMate Plus (Thermofisher) followed with addition of 50 μL plating medium. 5 μL compounds in the assay medium were transferred to the cells with 0.4% DMSO in the final assay at 2 μM. After removing the culture media, 10,000 Jurkat-PD-1-NFAT effector cells in 5 μL assay medium was dispensed into each well. The assay plate was incubated at 37° C., 5% CO2 for 24 hours. After the assay plate was equilibrated to room temp for 15 minutes, 20 µL/well of Bio-Glo™ reagent (Promega) were added. After 8 minutes incubation at room temperature, luminescence was read at with Pherastar microplate reader (BMG Labtech). The fold of induction (FOI) was calculated based on the ratio of luminescence normalized to the DMSO wells within each assay plate. The maximum percentage of induction was reported based on the ratio between the highest FOI of each compound and the maximum FOI of control compound within each assay plate. Wells with DMSO were served as the negative controls and wells containing control compound with the highest FOI were used as positive controls. EC50 determination was performed by fitting the curve of percent control activity versus the log of the compound concentration using the GraphPad Prism 6.0 software.

In experiment [3] the target is PD-1/PD-L1 protein/protein interaction (recombinant human PD-L1 and human PD-1) (Homo sapiens (Human), UniProt Q9NZQ7). The experiment is described as follows: Homogeneous Time-Resolved Fluorescence (HTRF) PD-1/PD-L1 binding assay. As to the method:
Example A. Homogeneous Time-Resolved Fluorescence (HTRF) PD-1/PD-L1 Binding Assay
The assays were conducted in a standard black 384-well polystyrene plate with a final volume of 20 μL. Inhibitors were first serially diluted in DMSO and then added to the plate wells before the addition of other reaction components. The final concentration of DMSO in the assay was 1%. The assays were carried out at 25° C. in the PBS buffer (pH 7.4) with 0.05% Tween-20 and 0.1% BSA. Recombinant human PD-L1 protein (19-238) with a His-tag at the C-terminus was purchased from AcroBiosystems (PD1-H5229). Recombinant human PD-1 protein (25-167) with Fc tag at the C-terminus was also purchased from AcroBiosystems (PD1-H5257). PD-L1 and PD-1 proteins were diluted in the assay buffer and 10 μL was added to the plate well. Plates were centrifuged and proteins were preincubated with inhibitors for 40 minutes. The incubation was followed by the addition of 10 μL of HTRF detection buffer supplemented with Europium cryptate-labeled anti-human IgG (PerkinElmer-AD0212) specific for Fc and anti-His antibody conjugated to SureLight®-Allophycocyanin (APC, PerkinElmer-AD0059H). After centrifugation, the plate was incubated at 25° C. for 60 min. before reading on a PHERAstar FS plate reader (665 nm/620 nm ratio). Final concentrations in the assay were—3 nM PD1, 10 nM PD-L1, 1 nM europium anti-human IgG and 20 nM anti-His-Allophycocyanin. IC50 determination was performed by fitting the curve of percent control activity versus the log of the inhibitor concentration using the GraphPad Prism 5.0 software.

Sequence of PD-1/PD-L1 protein/protein interaction (recombinant human PD-L1 and human PD-1) (Q9NZQ7 19-238): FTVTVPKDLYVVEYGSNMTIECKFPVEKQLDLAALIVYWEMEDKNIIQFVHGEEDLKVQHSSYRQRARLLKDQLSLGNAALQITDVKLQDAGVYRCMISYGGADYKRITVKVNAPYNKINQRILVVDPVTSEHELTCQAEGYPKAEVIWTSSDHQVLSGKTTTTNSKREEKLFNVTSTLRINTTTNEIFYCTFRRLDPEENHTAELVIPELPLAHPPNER

`Cc1c(NC(=O)c2nc3c(n2C)CCN(C2CCC(O)CC2)C3)cccc1-c1cccc(NC(=O)c2nc3c(n2C)CCN(CCC24CCC(C(=O)O)(CC2)C4)C3)c1Cl` (single isomer, unassigned) [61 (compound 2), 4-(2-(2-((2-chloro-3′-(5-(4-hydroxycyclohexyl)-1-methyl-4,5,6,7-tetrahydro-1H-imidazo[4,5-c]pyridine-2-carboxamido)-2′-methyl-[1,1′-biphenyl]-3-yl)carbamoyl)-1-methyl-1,4,6,7-tetrahydro-5H-imidazo[4,5-c]pyridin-5-yl)ethyl)bicyclo[2.2.1]heptane-1-carboxylic acid]: the half-inhibitory concentration (IC50) is ≤ 10 nM in experiment [1] and ≤ 5 nM in experiment [3]. The concentration for a half-maximal effect (EC50) in experiment [2] fell in the range of 10 to 100 nM.
`CN1CCc2c(nc(C(=O)Nc3cccc(-c4cccc(NC(=O)c5nc6c(n5C)CCN(CCC57CCC(C(=O)O)(CC5)C7)C6)c4Cl)c3Cl)n2C)C1` [Example 3, 4-(2-(2-((2,2′-dichloro-3′-(1,5-dimethyl-4,5,6,7-tetrahydro-1H-imidazo[4,5-c]pyridine-2-carboxamido)-[1,1′-biphenyl]-3-yl)carbamoyl)-1-methyl-1,4,6,7-tetrahydro-5H-imidazo[4,5-c]pyridin-5-yl)ethyl)bicyclo[2.2.1]heptane-1-carboxylic acid]: the 50% inhibitory concentration (IC50) in experiment [1] (Homo sapiens, U2OS) was ≤ 10 nM; in experiment [3] it was ≤ 5 nM. Besides, the EC50 in experiment [2] (Cricetulus griseus, CHO-K1) fell in the range of 10 to 100 nM.
In the case of `CCN1CCc2c(nc(C(=O)Nc3cccc(-c4cccc(NC(=O)c5nc6c(n5C)CCN(CCC57CCC(C(=O)O)(CC5)C7)C6)c4Cl)c3Cl)n2C)C1` [Example 4, 4-(2-(2-((2,2′-dichloro-3′-(5-ethyl-1-methyl-4,5,6,7-tetrahydro-1H-imidazo[4,5-c]pyridine-2-carboxamido)-[1,1′-biphenyl]-3-yl)carbamoyl)-1-methyl-1,4,6,7-tetrahydro-5H-imidazo[4,5-c]pyridin-5-yl)ethyl)bicyclo[2.2.1]heptane-1-carboxylic acid], the IC50 is ≤ 10 nM in experiment [1] (Homo sapiens, U2OS) and ≤ 5 nM in experiment [3]. The same molecule yielded an EC50 in experiment [2] (Cricetulus griseus, CHO-K1) of 10 to 100 nM.
The corresponding values for `CC(C)N1CCc2c(nc(C(=O)Nc3cccc(-c4cccc(NC(=O)c5nc6c(n5C)CCN(CCC57CCC(C(=O)O)(CC5)C7)C6)c4Cl)c3Cl)n2C)C1` [Example 5, 4-(2-(2-((2,2′-dichloro-3′-(5-isopropyl-1-methyl-4,5,6,7-tetrahydro-1H-imidazo[4,5-c]pyridine-2-carboxamido)-[1,1′-biphenyl]-3-yl)carbamoyl)-1-methyl-1,4,6,7-tetrahydro-5H-imidazo[4,5-c]pyridin-5-yl)ethyl)bicyclo[2.2.1]heptane-1-carboxylic acid] are ≤ 10 nM, ≤ 5 nM and ≤ 10 nM.
The matching figures for `Cn1c(C(=O)Nc2cccc(-c3cccc(NC(=O)c4nc5c(n4C)CCN(C4CCC4)C5)c3Cl)c2Cl)nc2c1CCN(CCC13CCC(C(=O)O)(CC1)C3)C2` [Example 6, 4-(2-(2-((2,2′-dichloro-3′-(5-cyclobutyl-1-methyl-4,5,6,7-tetrahydro-1H-imidazo[4,5-c]pyridine-2-carboxamido)-[1,1′-biphenyl]-3-yl)carbamoyl)-1-methyl-1,4,6,7-tetrahydro-5H-imidazo[4,5-c]pyridin-5-yl)ethyl)bicyclo[2.2.1]heptane-1-carboxylic acid]: ≤ 10 nM, ≤ 5 nM and 10 to 100 nM.
The matching figures for `Cn1c(C(=O)Nc2cccc(-c3cccc(NC(=O)c4nc5c(n4C)CCN(Cc4cc(C(=O)O)n[nH]4)C5)c3Cl)c2Cl)nc2c1CCN(CCC13CCC(C(=O)O)(CC1)C3)C2` [Example 26, 5-((2-((3′-(5-(2-(4-carboxybicyclo[2.2.1]heptan-1-yl)ethyl)-1-methyl-4,5,6,7-tetrahydro-1H-imidazo[4,5-c]pyridine-2-carboxamido)-2,2′-dichloro-[1,1′-biphenyl]-3-yl)carbamoyl)-1-methyl-1,4,6,7-tetrahydro-5H-imidazo[4,5-c]pyridin-5-yl)methyl)-1H-pyrazole-3-carboxylic acid]: ≤ 10 nM, ≤ 5 nM and 10 to 100 nM.
As to `Cn1c(C(=O)Nc2cccc(-c3cccc(NC(=O)c4nc5c(n4C)CCN(C4CCOCC4)C5)c3C#N)c2Cl)nc2c1CCN(CCC13CCC(C(=O)O)(CC1)C3)C2` [Example 47, 4-(2-(2-((2-chloro-2′-cyano-3′-(1-methyl-5-(tetrahydro-2H-pyran-4-yl)-4,5,6,7-tetrahydro-1H-imidazo[4,5-c]pyridine-2-carboxamido)-[1,1′-biphenyl]-3-yl)carbamoyl)-1-methyl-1,4,6,7-tetrahydro-5H-imidazo[4,5-c]pyridin-5-yl)ethyl)bicyclo[2.2.1]heptane-1-carboxylic acid], the half-maximal effective concentration (EC50) in experiment [2] (Cricetulus griseus, CHO-K1) lay within 10 to 100 nM. Further, the concentration for half-maximal inhibition (IC50) in experiment [3] is ≤ 5 nM.
The corresponding values for `C[C@@H](O)CN1CCc2c(nc(C(=O)Nc3cccc(-c4cccc(NC(=O)c5nc6c(n5C)CCN(CCC57CCC(C(=O)O)(CC5)C7)C6)c4Cl)c3C#N)n2C)C1` [Example 49, (R)-4-(2-(2-((2-chloro-2′-cyano-3′-(5-(2-hydroxypropyl)-1-methyl-4,5,6,7-tetrahydro-1H-imidazo[4,5-c]pyridine-2-carboxamido)-[1,1′-biphenyl]-3-yl)carbamoyl)-1-methyl-1,4,6,7-tetrahydro-5H-imidazo[4,5-c]pyridin-5-yl)ethyl)bicyclo[2.2.1]heptane-1-carboxylic Acid] are 10 to 100 nM and ≤ 5 nM.
`Cn1c(C(=O)Nc2cccc(-c3cccc(NC(=O)c4nc5c(n4C)CCN(CCO)C5)c3C#N)c2Cl)nc2c1CCN(CCC13CCC(C(=O)O)(CC1)C3)C2` [Example 50, 4-(2-(2-((2-chloro-2′-cyano-3′-(5-(2-hydroxyethyl)-1-methyl-4,5,6,7-tetrahydro-1H-imidazo[4,5-c]pyridine-2-carboxamido)-[1,1′-biphenyl]-3-yl)carbamoyl)-1-methyl-1,4,6,7-tetrahydro-5H-imidazo[4,5-c]pyridin-5-yl)ethyl)bicyclo[2.2.1]heptane-1-carboxylic acid] displayed a concentration for a half-maximal effect (EC50) in experiment [2] (Cricetulus griseus, CHO-K1) of 10 to 100 nM. The half-inhibitory concentration (IC50) in experiment [3] was ≤ 5 nM.
